# Laboratory results from article PMC7990499, “eIF2B conformation and assembly state regulate the integrated stress response” (eLife, 2021).
# Molecular target: T1, eIF2B decamer, eIF2B(αβδγε)2 (ISRIB pocket at the eIF2Bβ/eIF2Bδ interface) (Homo sapiens, UniProt P49770+Q9UI10)
# T1 construct: gene EIF2B2; full eIF2B(αβδγε)2 decamer assembled from purified eIF2Bβγδε and eIF2Bα2; with eIF2Bβ (EIF2B2), with eIF2Bα, eIF2Bγ, eIF2Bε
# Assay: fluorescence polarization competition with FAM-ISRIB; also FRET assembly of tetramers (EC50 […]), re-refined cryo-EM model
# Assay type: binding
structure (smiles),measurement,value
O=C(COc1ccc(Cl)cc1)N[C@H]1CC[C@H](NC(=O)COc2ccc(Cl)cc2)CC1 [ISRIB],IC50,37 nM
